Values quoted from earlier work as cited in patent US20130316926A1, “METHOD FOR THE MONITORING OF SMOKING CESSATION COMPLIANCE AND RECOVERY, THERAPEUTIC INTERVENTION, AND RISK MANAGEMENT” (Health Diagnostic Laboratory, Inc., priority 2012, published 2013).
Where two headings read alike, the source gives them in different places.

Experiments:
[1] = for t½: b55, cotinine value is an average
[2] = for urinary concentration: tobacco user, regardless of nicotine replacement therapy

| half-life ([1]; b40, Benowitz 1986) | SMILES | half-life [1] [h] | time to reach the central nervous system ([1]; after tobacco smoke inhalation) [s] | t½ [1] [h] | fraction of circulating nicotine metabolized to cotinine ([1]; by cytochrome P450 and aldehyde oxidase) [%] | distribution half-life ([1]; in vivo) [min] | elimination half-life ([1]; in vivo) [h] | nicotine leaving the liver in metabolite forms ([1]; on average) [%] | nicotine that enters the liver and exits unchanged ([1]; on average) [%] | Concentration of Urinary: Non-tobacco user with no passive exposure [2] [ng/mL] | Concentration of Urinary: Non-tobacco user with Passive exposure [2] [ng/mL] | Concentration of Urinary: Tobacco user after 2 weeks' abstinence [2] [ng/mL] | concentration in urine of tobacco users [2] | urinary concentration [2] [ng/mL] |
| --- | --- | --- | --- | --- | --- | --- | --- | --- | --- | --- | --- | --- | --- | --- |
| – | CN1CCCC1c1cccnc1 (centres unmarked) [Nicotine] | 2 | ≤ 20 | 2 | 70 | 8 | 2 | 70 | 30 | <2.0 | <20 | <30 | 1,000-5,000 ng/mL | – |
| about 20 hrs | CN1C(=O)CC[C@H]1c1cccnc1 [Cotinine] | 15 | – | 16 | – | – | – | – | – | <5.0 | <20 | <50 | 1,000-8,000 ng/mL | – |
| – | CN1C(=O)[C@H](O)C[C@H]1c1cccnc1 (relative stereo) [trans-3-hydroxycotinine] | 10 | – | – | – | – | – | – | – | <50 | <50 | <120 | 3,000-25,000 ng/mL | – |
| – | c1cncc([C@@H]2CCCN2)c1 [Nornicotine] | – | – | – | – | – | – | – | – | <2.0 | <2.0 | <2.0 | – | > 30 |
| – | c1cncc([C@@H]2CCCCN2)c1 [Anabasine] | – | – | – | – | – | – | – | – | <2.0 | <2.0 | <2.0 | – | > 10 |
